{"source": "patent US6420317B1", "about": "“Benzoylpyrazoles and their use as herbicides” (Aventis CropScience GmbH, priority 2000, dated 2002)", "experiment_in_all_cases": "Post-emergence herbicidal action on harmful plants (greenhouse)", "format_in_all_cases": "in vivo", "conditions_in_all_cases": "50 g a.i./ha, visual scoring after about 3 to 4 weeks", "key": {"Chenopodium album": {"system": "Chenopodium album", "experimental": "(§1) 1. Post-emergence herbicidal action on harmful plants\n(§2) Seeds of monocotyledonous and dicotyledonous harmful plants are placed in sandy loam soil in cardboard pots, covered with soil and grown in a greenhouse under good growth conditions. Two to three weeks after sowing, the test plants are treated at the three-leaf stage. The compounds according to the invention which were formulated as wettable powders or emulsion concentrate are sprayed, at one of the dosages given in Tables 1 to 5, onto the surface of the green parts of the plants at an application rate of from 600 to 800 1 of water/ha (converted). After the test plants had remained in the greenhouse for about 3 to 4 weeks under optimum growth conditions, the effect of the preparations is scored visually by comparison with compounds disclosed in the prior art. As shown by the results of Comparative Tables 1 to 4, the selected compounds according to the invention have better herbicidal activity against a broad spectrum of economically important monocotyledonous and dicotyledonous harmful plants than the compounds disclosed in the prior art."}, "Polygonum convolvulus": {"system": "Polygonum convolvulus", "experimental": "as §1, §2"}, "Stellaria media": {"system": "Stellaria media", "experimental": "as §1, §2"}}}
{"smiles": "Cc1nn(C)c(O)c1C(=O)c1ccc(S(C)(=O)=O)cc1", "note": "[Compound S2]", "values": [{"measurement": "Damage to the harmful plants in % CHEAL", "setting": "Chenopodium album", "result": 0, "unit": "%"}, {"measurement": "Damage to the harmful plants in % POLCO", "setting": "Polygonum convolvulus", "result": 10, "unit": "%"}, {"measurement": "Damage to the harmful plants in % STEME", "setting": "Stellaria media", "result": 10, "unit": "%"}]}
